Assay results: ChEMBL document CHEMBL1201862, “PubChem BioAssay data set” (2004)
The source made the active and inactive calls.

Key:
Format in all cases: functional
[1] = molecular target: Neuropeptides B/W receptor type 1 (Homo sapiens, UniProt P48145); experiment: GPR7 antagonist potency, late-stage follow-up, cell-based, fluorescence, dose response, set 6 (AID 588583)
[2] = molecular target: Melanin-concentrating hormone receptor 1 (Homo sapiens, UniProt Q99705); experiment: Late-stage fluorescence-based counterscreen for antagonists of the G-protein coupled receptor 7 (GPR7): cell-based dose response assay to identify antagonists of the melanin-concentrating hormone receptor 1 (MCHR1) Set 6.
[3] = molecular target: Glycogen synthase kinase-3 beta (Homo sapiens, UniProt P49841); experiment: GSK3beta kinase inhibitors, dose response, biochemical, microfluidics, dry powder samples, set 2 (AID 623989)
[4] = THP-1 cell cytotoxicity, dose response, cytotoxicity control, set 3 (AID 504852); details: Mycobacterium tuberculosis
[5] = THP-1 cell cytotoxicity, cytotoxicity control, set 4 (AID 504911); details: Mycobacterium tuberculosis
[6] = Vero cell cytotoxicity, dose response, cytotoxicity control for M. tuberculosis growth inhibitor project, Vero cells, purified and synthesized compounds, set 4 (AID 504854); details: Mycobacterium tuberculosis
[7] = Vero cell cytotoxicity, dose response, cytotoxicity control for M. tuberculosis growth inhibitor project, Vero cells, purified and synthesized compounds, set 5 (AID 504909); details: Mycobacterium tuberculosis

Chain of Glycogen synthase kinase-3 beta (P49841 whole entry): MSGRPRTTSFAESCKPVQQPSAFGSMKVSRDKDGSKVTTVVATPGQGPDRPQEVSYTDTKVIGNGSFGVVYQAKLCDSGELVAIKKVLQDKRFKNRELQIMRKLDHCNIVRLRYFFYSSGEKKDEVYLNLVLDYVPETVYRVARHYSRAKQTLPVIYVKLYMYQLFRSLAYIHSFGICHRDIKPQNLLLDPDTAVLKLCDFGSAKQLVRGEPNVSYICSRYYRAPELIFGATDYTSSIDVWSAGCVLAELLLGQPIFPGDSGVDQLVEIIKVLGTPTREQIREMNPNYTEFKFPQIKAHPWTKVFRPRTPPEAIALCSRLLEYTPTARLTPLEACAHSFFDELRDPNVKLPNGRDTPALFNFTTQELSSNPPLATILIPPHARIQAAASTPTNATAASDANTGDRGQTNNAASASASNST
Chain of Melanin-concentrating hormone receptor 1 (Q99705 whole entry): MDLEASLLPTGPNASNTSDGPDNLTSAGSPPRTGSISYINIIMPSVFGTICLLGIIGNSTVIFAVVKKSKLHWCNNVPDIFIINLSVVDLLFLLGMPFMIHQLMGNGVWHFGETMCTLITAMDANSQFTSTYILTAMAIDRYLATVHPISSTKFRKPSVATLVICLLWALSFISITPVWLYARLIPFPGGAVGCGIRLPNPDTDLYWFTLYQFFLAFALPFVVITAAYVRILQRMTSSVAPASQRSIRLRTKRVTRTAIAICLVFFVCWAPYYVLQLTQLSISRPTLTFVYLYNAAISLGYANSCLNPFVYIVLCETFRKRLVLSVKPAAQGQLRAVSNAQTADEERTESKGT
Chain of Neuropeptides B/W receptor type 1 (P48145 whole entry): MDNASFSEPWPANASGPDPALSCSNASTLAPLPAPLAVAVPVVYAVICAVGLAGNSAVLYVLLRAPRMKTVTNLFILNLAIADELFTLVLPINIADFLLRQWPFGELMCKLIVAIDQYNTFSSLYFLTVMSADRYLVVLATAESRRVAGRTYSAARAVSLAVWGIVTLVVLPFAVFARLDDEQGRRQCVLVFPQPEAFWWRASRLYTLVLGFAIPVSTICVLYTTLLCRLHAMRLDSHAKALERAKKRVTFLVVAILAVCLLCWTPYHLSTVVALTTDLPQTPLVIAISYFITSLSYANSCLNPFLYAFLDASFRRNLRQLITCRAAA

Which IC50 [1] does the source give for N#CC(c1cccc(Cl)c1)c1c(Cl)cnn(Cc2cccc3ccccc23)c1=O (configuration not stated) here?
The IC50 was 0.26 µM (active).

What about the IC50 [2] of the same compound?
Its IC50 is 0.26 µM (active).

Which AC50 [3] does the source give for COc1ccc(/C=C2\SC(NCc3ccccc3)=NC2=O)cc1 here?
The AC50 was 6.02 µM (active).

What does the source list for COc1cccc(NC(=O)CSc2nc3ccccc3c(=O)[nH]2)c1?
CC50 [4]: > 100 µM (active); CC50 [5]: > 100 µM (active); CC50 [6]: > 100 µM (active); CC50 [7]: > 100 µM (active)
